One assay concerns the target TRKA (G595R) (Homo sapiens (Human), UniProt P04629, G595R). Description: Radio-tagged HotSpot kinase assay, TRKA (G595R).
Another assay addresses TRKA (G677C) (Homo sapiens, UniProt P04629, G667C). Briefly: Radio-tagged HotSpot kinase assay, TRKA (G677C). Format: biochemical. Conditions: 33P-ATP, 120 min, room temperature.
A further assay addresses ALK (G1202R) (Homo sapiens (Human), UniProt Q9UM73, G1202R). Description: Radio-tagged HotSpot kinase assay, ALK (G1202R). Format: biochemical. Conditions: 33P-ATP, 120 min, room temperature.
For the next assay, the target named is ALK (Homo sapiens (Human), UniProt Q9UM73). Description: Radio-tagged HotSpot kinase assay, ALK. Format: biochemical. As to conditions: 33P-ATP, 120 min, room temperature.
Sequence of ALK (Q9UM73 19-1620): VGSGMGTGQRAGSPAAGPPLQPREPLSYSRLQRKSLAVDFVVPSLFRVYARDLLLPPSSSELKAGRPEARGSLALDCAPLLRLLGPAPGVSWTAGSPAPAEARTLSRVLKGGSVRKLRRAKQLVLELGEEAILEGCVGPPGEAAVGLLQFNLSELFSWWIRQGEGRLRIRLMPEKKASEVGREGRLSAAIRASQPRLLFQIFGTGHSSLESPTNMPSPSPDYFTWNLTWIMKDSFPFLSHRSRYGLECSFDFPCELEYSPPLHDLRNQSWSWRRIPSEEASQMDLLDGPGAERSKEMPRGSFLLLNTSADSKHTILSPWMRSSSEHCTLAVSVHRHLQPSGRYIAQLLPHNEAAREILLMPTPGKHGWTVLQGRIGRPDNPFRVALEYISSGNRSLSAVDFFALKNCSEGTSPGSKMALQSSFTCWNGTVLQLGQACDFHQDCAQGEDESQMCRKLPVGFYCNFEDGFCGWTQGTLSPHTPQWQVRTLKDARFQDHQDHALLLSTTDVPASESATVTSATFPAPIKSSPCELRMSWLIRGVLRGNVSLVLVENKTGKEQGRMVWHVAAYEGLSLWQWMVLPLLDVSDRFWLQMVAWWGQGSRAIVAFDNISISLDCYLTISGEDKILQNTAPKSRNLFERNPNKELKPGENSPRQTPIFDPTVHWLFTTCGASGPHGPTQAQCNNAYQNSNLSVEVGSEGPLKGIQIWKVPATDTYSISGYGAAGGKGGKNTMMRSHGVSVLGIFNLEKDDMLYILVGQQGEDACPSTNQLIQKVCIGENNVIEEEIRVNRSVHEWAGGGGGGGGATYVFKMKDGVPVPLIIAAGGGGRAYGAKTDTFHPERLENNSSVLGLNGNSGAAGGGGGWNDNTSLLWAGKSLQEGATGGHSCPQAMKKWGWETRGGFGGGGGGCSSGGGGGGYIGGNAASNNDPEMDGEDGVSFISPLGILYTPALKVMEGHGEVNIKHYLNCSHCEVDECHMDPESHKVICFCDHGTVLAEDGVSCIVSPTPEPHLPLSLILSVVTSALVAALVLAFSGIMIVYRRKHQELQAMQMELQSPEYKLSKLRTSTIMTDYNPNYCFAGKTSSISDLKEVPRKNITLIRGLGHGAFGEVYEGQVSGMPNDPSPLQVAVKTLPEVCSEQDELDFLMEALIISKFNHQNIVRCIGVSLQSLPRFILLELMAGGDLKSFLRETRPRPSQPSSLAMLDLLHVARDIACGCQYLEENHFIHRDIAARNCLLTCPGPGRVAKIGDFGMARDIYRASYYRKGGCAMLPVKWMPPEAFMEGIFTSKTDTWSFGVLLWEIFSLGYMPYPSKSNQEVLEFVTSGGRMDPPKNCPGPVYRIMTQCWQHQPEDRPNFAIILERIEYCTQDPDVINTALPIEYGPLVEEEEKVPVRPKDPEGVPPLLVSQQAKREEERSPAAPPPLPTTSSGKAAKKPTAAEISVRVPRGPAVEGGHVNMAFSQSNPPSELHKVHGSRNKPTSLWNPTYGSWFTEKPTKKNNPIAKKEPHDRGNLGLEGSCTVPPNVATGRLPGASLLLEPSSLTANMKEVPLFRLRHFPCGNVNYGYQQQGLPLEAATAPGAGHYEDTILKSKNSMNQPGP
Another assay has as its target TRKC (Homo sapiens (Human), UniProt Q16288). Briefly: Radio-tagged HotSpot kinase assay, TRKC. Format: biochemical. Conditions: 33P-ATP, 120 min, room temperature.
The next assay concerns the target ROS1 (G2032R) (Homo sapiens (Human), UniProt P08922, G2032R). Description: Radio-tagged HotSpot kinase assay, ROS1 (G2032R).
For another assay, the target named is TRKB (Homo sapiens (Human), UniProt Q16620). Briefly: Radio-tagged HotSpot kinase assay, TRKB. Format: biochemical. As to conditions: 33P-ATP, 120 min, room temperature.
Sequence of TRKB (Q16620 32-822): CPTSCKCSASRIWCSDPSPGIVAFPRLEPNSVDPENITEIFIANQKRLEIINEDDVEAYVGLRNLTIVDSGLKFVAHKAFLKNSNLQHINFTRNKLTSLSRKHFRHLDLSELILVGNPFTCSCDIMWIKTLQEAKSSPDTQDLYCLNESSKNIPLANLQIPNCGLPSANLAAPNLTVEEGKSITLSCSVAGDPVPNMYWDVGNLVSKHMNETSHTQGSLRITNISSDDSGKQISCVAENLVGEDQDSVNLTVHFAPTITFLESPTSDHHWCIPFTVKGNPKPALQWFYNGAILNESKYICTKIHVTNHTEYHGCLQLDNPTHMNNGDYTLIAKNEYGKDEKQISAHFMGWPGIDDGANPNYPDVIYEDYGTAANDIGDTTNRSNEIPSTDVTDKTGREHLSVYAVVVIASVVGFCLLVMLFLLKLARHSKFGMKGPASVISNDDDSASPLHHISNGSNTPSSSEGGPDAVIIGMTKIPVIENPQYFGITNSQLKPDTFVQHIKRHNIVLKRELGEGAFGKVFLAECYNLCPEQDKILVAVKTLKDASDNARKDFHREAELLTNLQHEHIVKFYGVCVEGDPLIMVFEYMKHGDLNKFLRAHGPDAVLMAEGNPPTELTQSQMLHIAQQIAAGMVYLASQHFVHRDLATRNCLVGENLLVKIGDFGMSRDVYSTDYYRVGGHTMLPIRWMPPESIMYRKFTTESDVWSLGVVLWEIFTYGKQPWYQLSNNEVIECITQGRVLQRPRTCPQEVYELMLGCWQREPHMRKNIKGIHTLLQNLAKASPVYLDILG
The target of a further assay is ROS1 (Homo sapiens (Human), UniProt P08922). Description: Radio-tagged HotSpot kinase assay, ROS1.
In another assay the target is TRKA (Homo sapiens (Human), UniProt P04629). Briefly: Radio-tagged HotSpot kinase assay, TRKA.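 Also: kinase activity measured through incorporation of 33P from labelled ATP into substrate, 120 min at room temperature, relative to a DMSO-only blank control, reported as inhibition.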
Sequence of TRKA (P04629 33-796): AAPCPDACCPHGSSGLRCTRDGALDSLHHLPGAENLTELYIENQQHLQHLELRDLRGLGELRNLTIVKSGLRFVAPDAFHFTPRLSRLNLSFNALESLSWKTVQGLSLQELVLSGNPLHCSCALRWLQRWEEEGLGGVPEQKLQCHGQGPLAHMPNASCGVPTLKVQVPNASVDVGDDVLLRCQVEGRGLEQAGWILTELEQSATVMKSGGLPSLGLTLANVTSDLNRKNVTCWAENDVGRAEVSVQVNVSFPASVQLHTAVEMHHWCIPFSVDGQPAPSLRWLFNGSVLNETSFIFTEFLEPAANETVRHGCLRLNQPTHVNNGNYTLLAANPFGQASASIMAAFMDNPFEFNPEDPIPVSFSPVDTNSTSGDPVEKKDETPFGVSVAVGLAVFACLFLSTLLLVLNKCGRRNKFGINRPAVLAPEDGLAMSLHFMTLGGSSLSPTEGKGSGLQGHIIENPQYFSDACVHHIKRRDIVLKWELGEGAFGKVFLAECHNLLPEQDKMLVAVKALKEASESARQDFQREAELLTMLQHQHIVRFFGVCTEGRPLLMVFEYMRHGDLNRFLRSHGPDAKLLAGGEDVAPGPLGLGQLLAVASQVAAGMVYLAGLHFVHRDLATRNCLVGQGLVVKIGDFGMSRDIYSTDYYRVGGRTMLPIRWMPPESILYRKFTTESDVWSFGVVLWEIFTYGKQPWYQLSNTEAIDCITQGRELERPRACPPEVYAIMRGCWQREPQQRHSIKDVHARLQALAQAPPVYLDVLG
In a further assay the test system is Ba/F3-LMNA-NTRK1. Briefly: Inhibition of cell proliferation (CellTiter-Glo), Ba/F3-LMNA-NTRK1. Conditions: 72 hours. Format: cell-based. As for the experimental part: (§1) The experiment of inhibiting cell proliferation by compounds was carried out in Hefei Zhongkeprecedo Biomedical Technology Co., Ltd. The Ba/F3 engineered cell line stably transfected with different kinase genes was recovered with RPMI 1640 medium (Biological Industries, Israel)+10% fetal bovine serum (Biological Industries, Israel)+1% double antibody (Penicillin Streptomycin solution, Coring, USA) and cultivated two generations. The logarithmic growth phase cell suspension was taken, and 2000 cells/well were inoculated on 96-well white cell culture plate (Corning 3917, NY, USA) with a volume of 95 μL per well. 5 μL of 20×DMSO solution of the compound to be tested was added into the culture plate containing 95 μL of cell suspension. The blank control group was added with corresponding volume of DMSO, mixed well, and incubated in a 5% CO2 incubator at 37° C. for 72 hours. CellTiter-Glo was used to detect cell viability.

The next assay has as its system Ba/F3-CD74-ROS1. Briefly: Inhibition of cell proliferation (CellTiter-Glo), Ba/F3-CD74-ROS1. Format: cell-based. Conditions: 72 hours. As for the experimental part: as §1
The next assay has as its system Ba/F3-CD74-ROS1-G2032R. Briefly: Inhibition of cell proliferation (CellTiter-Glo), Ba/F3-CD74-ROS1-G2032R.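 Also: Ba/F3 cell line expressing the CD74-ROS1 fusion with G2032R mutation.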 Format: cell-based. Conditions: 72 hours. As for the experimental part:
as §1
A general note: Cellular ATP, detected with luciferase, serves as a proxy for viable cell number.

The subject of the next assay is Ba/F3-LMNA-NTRK1-G595R. Description: Inhibition of cell proliferation (CellTiter-Glo), Ba/F3-LMNA-NTRK1-G595R. Conditions: 72 hours. Format: cell-based. As for the experimental part: as §1
For a further assay, the system named is Ba/F3-TEL-ALK-G1202R. Briefly: Inhibition of cell proliferation (CellTiter-Glo), Ba/F3-TEL-ALK-G1202R. Conditions: 72 hours. Format: cell-based. As for the experimental part:
as §1

The mark [1] stands for this setting: read-out: ROS1 (G2032R) (IC50/nM), 33P-ATP, 120 min, room temperature.
The mark [2] stands for this setting: read-out: ROS1 (IC50/nM), 33P-ATP, 120 min, room temperature.
The mark [3] stands for this setting: read-out: TRKA (IC50/nM), 33P-ATP, 120 min, room temperature.

For 14 molecules, IC50 results are on record in US12435089B2, “3-oxadiazolyl substituted pyrazolo[1,5,a]pyrimidines for ROS1, NTRK, and ALK mediated diseases” (TYK MEDICINES, INC., priority 2019, dated 2025).

Read-outs that look alike come from different tables or passages of the source.

Sequence of TRKA (G595R) (P04629 33-796 G595R): as the sequence (P04629 33-796) above, with G563R counted along it
Sequence of TRKA (G677C) (P04629 33-796 G667C limits assumed): as the sequence (P04629 33-796) above, with G635C counted along it
Sequence of ALK (G1202R) (Q9UM73 19-1620 G1202R): as the sequence (Q9UM73 19-1620) above, with G1184R counted along it
Sequence of TRKC (Q16288 32-839): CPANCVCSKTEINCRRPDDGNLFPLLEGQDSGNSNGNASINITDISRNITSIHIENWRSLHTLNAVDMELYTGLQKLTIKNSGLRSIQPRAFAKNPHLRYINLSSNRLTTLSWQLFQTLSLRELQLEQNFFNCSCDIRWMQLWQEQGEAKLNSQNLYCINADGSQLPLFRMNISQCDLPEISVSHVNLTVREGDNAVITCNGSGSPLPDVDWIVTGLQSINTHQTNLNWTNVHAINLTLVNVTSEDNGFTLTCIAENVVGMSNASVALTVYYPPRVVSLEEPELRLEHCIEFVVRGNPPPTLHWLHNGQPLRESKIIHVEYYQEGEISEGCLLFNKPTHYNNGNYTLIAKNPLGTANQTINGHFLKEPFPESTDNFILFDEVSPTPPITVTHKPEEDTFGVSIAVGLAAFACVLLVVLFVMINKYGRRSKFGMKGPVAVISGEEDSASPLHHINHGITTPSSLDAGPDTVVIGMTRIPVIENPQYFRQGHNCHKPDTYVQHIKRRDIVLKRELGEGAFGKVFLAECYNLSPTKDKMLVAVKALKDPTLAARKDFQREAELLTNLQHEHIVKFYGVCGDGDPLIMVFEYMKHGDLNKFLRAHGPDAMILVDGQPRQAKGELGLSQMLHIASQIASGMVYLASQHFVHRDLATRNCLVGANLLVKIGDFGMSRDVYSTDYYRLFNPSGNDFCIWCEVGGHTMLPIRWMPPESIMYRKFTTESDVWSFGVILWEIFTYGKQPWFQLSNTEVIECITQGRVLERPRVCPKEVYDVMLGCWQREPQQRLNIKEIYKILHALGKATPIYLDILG

In the case of `[2H]C([2H])([2H])Oc1ccc(F)cc1[C@@H](C)Nc1ccn2ncc(C3=NOC(C)(C)N3)c2n1` [Example 4], the IC50 on TRKA (G595R) is 5 to 50 nM; at TRKA (G677C) it was 5 to 50 nM; against ALK (G1202R) it was 5 to 50 nM; at ALK it was 0.5 to 5 nM.
For the molecule `C[C@@H](Nc1ccn2ncc(C3=NOC(C)(C)N3)c2n1)c1cc(F)ccc1F` [Example 5], the IC50 is less than 0.5 nM against TRKC; 5 to 50 nM against TRKA (G595R); less than 0.5 nM on ROS1 (G2032R) (setting [1]); 5 to 50 nM against TRKA (G677C); less than 0.5 nM against TRKB; less than 0.5 nM at ROS1 (setting [2]). For the same molecule, the figures for the IC50 against ALK (G1202R), against TRKA and at ALK were 5 to 50 nM, 0.5 to 5 nM and 0.5 to 5 nM, respectively.
Turning to `C[C@@H](Oc1ccn2ncc(C3=NOC(C)(C)N3)c2n1)c1c(Cl)ccc(F)c1Cl` [Example 9], the IC50 was 100 nM in the assay on Ba/F3-LMNA-NTRK1; 50 to 500 nM on TRKA (G677C); 26.2 nM with Ba/F3-CD74-ROS1; 155 nM with Ba/F3-CD74-ROS1-G2032R; 0.5 to 5 nM on TRKB; 890 nM in the assay on Ba/F3-LMNA-NTRK1-G595R. Moreover, the IC50 on ALK was in the range of 50 to 500 nM.
`COc1ccc(F)cc1[C@@H](C)Nc1ccn2ncc(C3=NOC(C)(C)N3)c2n1` [Example 10]: the IC50 in the assay on Ba/F3-TEL-ALK-G1202R is 87.5 nM; with Ba/F3-LMNA-NTRK1, 1.3 nM; on TRKC, less than 0.5 nM; on TRKA (G595R), 0.5 to 5 nM; on ROS1 (G2032R) (setting [1]), less than 0.5 nM; against TRKA (G677C), 0.5 to 5 nM. Further, the IC50 with Ba/F3-CD74-ROS1 is 2.8 nM; in the assay on Ba/F3-CD74-ROS1-G2032R, 7.9 nM; on TRKB, less than 0.5 nM; on ROS1 (setting [2]), less than 0.5 nM; against ALK (G1202R), 0.5 to 5 nM; on TRKA (setting [3]), less than 0.5 nM. Further, the figures for the IC50 with Ba/F3-LMNA-NTRK1-G595R and against ALK were 2.2 nM and 5 to 50 nM, respectively.
Consider `C[C@@H](Nc1ccn2ncc(C3=NOC(C)(C)N3)c2n1)c1c(Cl)ccc(F)c1Cl` [Example 14], for which the IC50 against TRKC lay within 0.5 to 5 nM; against TRKA (G595R), 5 to 50 nM; at ROS1 (G2032R) it was 0.5 to 5 nM; at TRKA (G677C) it was 5 to 50 nM; at TRKB it was 0.5 to 5 nM; on ROS1, 0.5 to 5 nM. The IC50 against ALK (G1202R) is 5 to 50 nM; at TRKA, 0.5 to 5 nM.
`C[C@@H](Nc1ccn2ncc(C3=NOC(C)(C)N3)c2n1)c1cc(F)ccc1Br` [Example 23]: the IC50 at TRKC fell in the range of 0.5 to 5 nM; on TRKA (G595R) it was 5 to 50 nM; on ROS1 (G2032R) it was 0.5 to 5 nM; at TRKA (G677C), 5 to 50 nM; at TRKB, 0.5 to 5 nM; on ROS1 it was 0.5 to 5 nM. In addition, the values for the IC50 against ALK (G1202R) and on TRKA were 5 to 50 nM and 0.5 to 5 nM, respectively.
On to `C[C@@H](Nc1ccn2ncc(C3=NOC(C)(C)N3)c2n1)c1ccccc1Cl` [Example 26], for which the IC50 at TRKC fell in the range of 0.5 to 5 nM; at TRKB it was 0.5 to 5 nM; at ROS1 it was 0.5 to 5 nM; against TRKA, 0.5 to 5 nM; against ALK, 5 to 50 nM.
Take `C[C@@H](Nc1ccn2ncc(C3=NOC(C)(C)N3)c2n1)c1cc(F)cc(F)c1` [Example 27]: the IC50 lay in the range of 0.5 to 5 nM at TRKC; 0.5 to 5 nM against TRKB; 0.5 to 5 nM against ROS1; 0.5 to 5 nM against TRKA; 5 to 50 nM at ALK.
With `COc1ncc(F)cc1[C@@H](C)Nc1ccn2ncc(C3=NOC(C)(C)N3)c2n1` [Example 28], the IC50 on TRKC was less than 0.5 nM; on TRKA (G595R) it was 0.5 to 5 nM; at ROS1 (G2032R) (setting [1]) it was less than 0.5 nM; on TRKA (G677C), 5 to 50 nM; against TRKB, less than 0.5 nM; at ROS1 (setting [2]), less than 0.5 nM. The IC50 against ALK (G1202R) was 0.5 to 5 nM; at TRKA (setting [3]), less than 0.5 nM; on ALK it was 5 to 50 nM.
With `Cc1ccc(F)cc1[C@@H](C)Nc1ccn2ncc(C3=NOC(C)(C)N3)c2n1` [Example 42], the IC50 on TRKC was 0.5 to 5 nM; against TRKB, 0.5 to 5 nM; against ROS1 it was 0.5 to 5 nM; against TRKA, 0.5 to 5 nM; against ALK, 5 to 50 nM.
Turning to `COc1ccc(F)cc1[C@@H](C)Nc1ccn2ncc(C3=NOC4(CCCC4)N3)c2n1` [Example 44], the IC50 in the assay on Ba/F3-LMNA-NTRK1 is 14.2 nM; against TRKA (G677C) it was 0.5 to 5 nM; with Ba/F3-CD74-ROS1, 6.9 nM; in the assay on Ba/F3-CD74-ROS1-G2032R, 59.2 nM; with Ba/F3-LMNA-NTRK1-G595R, 13.9 nM.
On to `CCOc1ccc(F)cc1[C@@H](C)Nc1ccn2ncc(C3=NOC(C)(C)N3)c2n1` [Example 50], for which the IC50 at TRKC was less than 0.5 nM; at TRKA (G595R), 0.5 to 5 nM; at ROS1 (G2032R) (setting [1]) it was less than 0.5 nM; on TRKA (G677C) it was 0.5 to 5 nM; against TRKB, less than 0.5 nM; on ROS1 (setting [2]), less than 0.5 nM. For the same molecule, the figures for the IC50 on ALK (G1202R), against TRKA and against ALK were 0.5 to 5 nM, 0.5 to 5 nM and 5 to 50 nM, respectively.
For `CC(C)Oc1ccc(F)cc1[C@@H](C)Nc1ccn2ncc(C3=NOC(C)(C)N3)c2n1` [Example 51], the IC50 was less than 0.5 nM against TRKC; 5 to 50 nM on TRKA (G595R); less than 0.5 nM on ROS1 (G2032R) (setting [1]); 5 to 50 nM against TRKA (G677C); less than 0.5 nM on TRKB; less than 0.5 nM at ROS1 (setting [2]). Besides, the IC50 was 0.5 to 5 nM against ALK (G1202R), 0.5 to 5 nM at TRKA and 5 to 50 nM on ALK.
As for `CCc1ccc(F)cc1[C@@H](C)Nc1ccn2ncc(C3=NOC(C)(C)N3)c2n1` [Example 52], the IC50 was less than 0.5 nM on TRKC; 5 to 50 nM on TRKA (G595R); 0.5 to 5 nM on ROS1 (G2032R); 50 to 500 nM on TRKA (G677C); 0.5 to 5 nM against TRKB; less than 0.5 nM on ROS1 (setting [2]). In addition, the values for the IC50 at ALK (G1202R), at TRKA and against ALK were 5 to 50 nM, 0.5 to 5 nM and 50 to 500 nM, respectively.
